Measured values as given in PubChem BioAssay AID256 (DTP/NCI, 2004).
“And” between values parts separate entries of the source, which are not always exact repeats. Equal values may be shown once. Toxic doses and inconclusive results are not listed. How the source made its calls: active means survival T/C of 150% or more; inactive means T/C below 125% in these data.

System: CD2F1 mice, L1210 leukemia ip, survival T/C
Assay: NCI In Vivo Anticancer Drug Screen. Data for tumor model L1210 Leukemia (intraperitoneal) in CD2F1 (CDF1) mice
Settings: higher = longer survival
Summary of the method: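 Tumor-bearing mice (transplanted tumor) were split into treated and vehicle control groups, and the measured endpoint of each treated group was divided by that of its vehicle controls.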

[1] = endpoint: mean survival time, dose: 25.0 mg/kg/injection, schedule: Q01DX009 (ip), vehicle: saline with Tween-80
[2] = endpoint: mean survival time, dose: 50.0 mg/kg/injection, schedule: Q04DX002 (ip), vehicle: saline with Tween-80
[3] = endpoint: mean survival time, dose: 100.0 mg/kg/injection, schedule: Q01DX001 (ip), vehicle: saline with Tween-80
[4] = endpoint: mean survival time, dose: 100.0 mg/kg/injection, schedule: Q04DX003 (ip), vehicle: saline with Tween-80
[5] = endpoint: mean survival time, dose: 200.0 mg/kg/injection, schedule: Q01DX001 (ip), vehicle: saline with Tween-80
[6] = endpoint: mean survival time, dose: 200.0 mg/kg/injection, schedule: Q04DX003 (ip), vehicle: saline with Tween-80
[7] = endpoint: mean survival time, dose: 50.0 mg/kg/injection, schedule: Q01DX009 (ip), vehicle: Klucel (hydroxypropylcellulose) (HPC)
[8] = endpoint: mean survival time, dose: 100.0 mg/kg/injection, schedule: Q04DX002 (ip), vehicle: saline with Tween-80
[9] = endpoint: mean survival time, dose: 200.0 mg/kg/injection, schedule: Q04DX002 (ip), vehicle: saline with Tween-80

Measured: T/C

CCCCCCCCCCCCCCCCCCN1CCCN(CCCCCCCCCCCCCCCCCC)CC1
inactive: [1] 107 % of control and 111 % of control | endpoint: mean survival time, dose: 25.0 mg/kg/injection, schedule: Q04DX002 (ip), vehicle: saline with Tween-80 93 % of control and 98 % of control | endpoint: mean survival time, dose: 50.0 mg/kg/injection, schedule: Q01DX001 (ip), vehicle: saline with Tween-80 98 % of control | endpoint: mean survival time, dose: 50.0 mg/kg/injection, schedule: Q01DX009 (ip), vehicle: other 93 % of control and 95 % of control | [2] 89 % of control and 97 % of control | endpoint: mean survival time, dose: 50.0 mg/kg/injection, schedule: Q04DX003 (ip), vehicle: saline with Tween-80 104 % of control | endpoint: mean survival time, dose: 100.0 mg/kg/injection, schedule: Q01DX001 (ip), vehicle: other 94 % of control | [3] 91 % of control | endpoint: mean survival time, dose: 100.0 mg/kg/injection, schedule: Q01DX009 (ip), vehicle: other 115 % of control and 101 % of control | endpoint: mean survival time, dose: 100.0 mg/kg/injection, schedule: Q04DX002 (ip), vehicle: other 94 % of control and 96 % of control | endpoint: mean survival time, dose: 100.0 mg/kg/injection, schedule: Q04DX003 (ip), vehicle: other 93 % of control | [4] 89 % of control | endpoint: mean survival time, dose: 200.0 mg/kg/injection, schedule: Q01DX001 (ip), vehicle: other 98 % of control | [5] 95 % of control | endpoint: mean survival time, dose: 200.0 mg/kg/injection, schedule: Q01DX009 (ip), vehicle: other 102 % of control and 108 % of control | endpoint: mean survival time, dose: 200.0 mg/kg/injection, schedule: Q04DX002 (ip), vehicle: other 96 % of control and 105 % of control | endpoint: mean survival time, dose: 200.0 mg/kg/injection, schedule: Q04DX003 (ip), vehicle: other 96 % of control | [6] 101 % of control | endpoint: mean survival time, dose: 400.0 mg/kg/injection, schedule: Q01DX001 (ip), vehicle: other 110 % of control | endpoint: mean survival time, dose: 400.0 mg/kg/injection, schedule: Q01DX009 (ip), vehicle: other 101 % of control and 104 % of control | endpoint: mean survival time, dose: 400.0 mg/kg/injection, schedule: Q04DX002 (ip), vehicle: other 105 % of control | endpoint: mean survival time, dose: 400.0 mg/kg/injection, schedule: Q04DX003 (ip), vehicle: other 100 % of control

Cc1cc(N2C(=O)CSC2=S)ccc1Br
inactive: [3] 95 % of control | [5] 97 % of control | endpoint: mean survival time, dose: 400.0 mg/kg/injection, schedule: Q01DX001 (ip), vehicle: saline with Tween-80 100 % of control

Cc1ccc([N+](=O)[O-])cc1NC(=O)N1CCC(C)CC1
inactive: [7] 98 % of control | endpoint: mean survival time, dose: 100.0 mg/kg/injection, schedule: Q01DX009 (ip), vehicle: Klucel (hydroxypropylcellulose) (HPC) 96 % of control | endpoint: mean survival time, dose: 200.0 mg/kg/injection, schedule: Q01DX009 (ip), vehicle: Klucel (hydroxypropylcellulose) (HPC) 101 % of control

O=S1(=O)CCCCN1c1ccccn1
inactive: [8] 102 % of control | [9] 94 % of control | endpoint: mean survival time, dose: 400.0 mg/kg/injection, schedule: Q04DX002 (ip), vehicle: saline with Tween-80 105 % of control

O=C(SC(=O)c1ccccc1)c1ccccc1
inactive: [4] 97 % of control | [6] 100 % of control | endpoint: mean survival time, dose: 400.0 mg/kg/injection, schedule: Q04DX003 (ip), vehicle: saline with Tween-80 94 % of control

CCN(CC)CCCC(C)NC(c1ccc2c(c1)Sc1ccccc1O2)[P+](=O)O (centres undefined)
inactive: [2] 97 % of control | endpoint: mean survival time, dose: 100.0 mg/kg/injection, schedule: Q01DX001 (ip), vehicle: saline sonified 95 % of control | [8] 90 % of control | endpoint: mean survival time, dose: 200.0 mg/kg/injection, schedule: Q01DX001 (ip), vehicle: saline sonified 91 % of control | [9] 97 % of control

COc1cc2cc[n+]3c(C)c4cc5c(cc4cc3c2cc1OC)OCO5 (tested in a mixture with another compound)
inactive: [1] 120 % of control | endpoint: mean survival time, dose: 37.5 mg/kg/injection, schedule: Q01DX009 (ip), vehicle: saline with Tween-80 94 % of control | endpoint: mean survival time, dose: 37.5 mg/kg/injection, schedule: Q01DX009 (ip), vehicle: saline 108 % of control | endpoint: mean survival time, dose: 50.0 mg/kg/injection, schedule: Q01DX009 (ip), vehicle: saline 106 % of control | endpoint: mean survival time, dose: 100.0 mg/kg/injection, schedule: Q04DX003 (ip), vehicle: saline 121 % of control | endpoint: mean survival time, dose: 200.0 mg/kg/injection, schedule: Q04DX003 (ip), vehicle: saline 93 % of control

OCC(O)C1OC(c2ccccc2)OC(CO)C1O (centres undefined)
inactive: endpoint: mean survival time, dose: 100.0 mg/kg/injection, schedule: Q04DX003 (ip), vehicle: saline + alcohol 106 % of control | endpoint: mean survival time, dose: 200.0 mg/kg/injection, schedule: Q04DX003 (ip), vehicle: saline + alcohol 100 % of control | endpoint: mean survival time, dose: 400.0 mg/kg/injection, schedule: Q04DX003 (ip), vehicle: saline + alcohol 95 % of control

CCCCCC[C@@H](O)[C@@H]1C2=C(C[C@H]([C@H](O)[C@@H]3CC=CC(=O)O3)CC3=C(C(=O)OC3=O)[C@@H]1O)C(=O)OC2=O
inactive: endpoint: mean survival time, dose: 0.13 mg/kg/injection, schedule: Q01DX001 (ip), vehicle: saline 97 % of control | endpoint: mean survival time, dose: 0.25 mg/kg/injection, schedule: Q01DX001 (ip), vehicle: saline 95 % of control | endpoint: mean survival time, dose: 0.5 mg/kg/injection, schedule: Q01DX001 (ip), vehicle: saline 96 % of control | endpoint: mean survival time, dose: 1.0 mg/kg/injection, schedule: Q01DX001 (ip), vehicle: saline 96 % of control | endpoint: mean survival time, dose: 2.0 mg/kg/injection, schedule: Q01DX001 (ip), vehicle: saline 96 % of control

CCCCCCCCCCCCCCCCCCOc1ccc(Cl)cc1
inactive: [8] 90 % of control | [9] 93 % of control

CN(C)CCP(c1ccccc1)c1ccccc1
inactive: endpoint: mean survival time, dose: 75.0 mg/kg/injection, schedule: Q01DX001 (ip), vehicle: other 102 % of control

Cc1ccnc(NC2=CC(=O)C(=O)c3ccccc32)c1
inactive: endpoint: mean survival time, dose: 100.0 mg/kg/injection, schedule: Q01DX009 (ip), vehicle: saline sonified 108 % of control | endpoint: mean survival time, dose: 200.0 mg/kg/injection, schedule: Q01DX009 (ip), vehicle: saline sonified 103 % of control

COc1ccc(CCN(C=O)c2ccc(OC)c(OC)c2)cc1OC
inactive: endpoint: mean survival time, dose: 12.5 mg/kg/injection, schedule: Q01DX009 (ip), vehicle: water 96 % of control | endpoint: mean survival time, dose: 25.0 mg/kg/injection, schedule: Q01DX009 (ip), vehicle: water 98 % of control | endpoint: mean survival time, dose: 50.0 mg/kg/injection, schedule: Q01DX009 (ip), vehicle: water 98 % of control | endpoint: mean survival time, dose: 100.0 mg/kg/injection, schedule: Q01DX009 (ip), vehicle: water 100 % of control | endpoint: mean survival time, dose: 200.0 mg/kg/injection, schedule: Q01DX009 (ip), vehicle: water 100 % of control

COc1nc(NC2OCC(O)C(O)C2O)c(Br)c(=O)n1C (centres undefined)
inactive: endpoint: median survival time, dose: 12.5 mg/kg/injection, schedule: Q01DX005 (ip), vehicle: saline with Tween-80 100 % of control | endpoint: median survival time, dose: 25.0 mg/kg/injection, schedule: Q01DX005 (ip), vehicle: saline with Tween-80 101 % of control | endpoint: median survival time, dose: 50.0 mg/kg/injection, schedule: Q01DX005 (ip), vehicle: saline with Tween-80 101 % of control | endpoint: median survival time, dose: 100.0 mg/kg/injection, schedule: Q01DX005 (ip), vehicle: saline with Tween-80 101 % of control | endpoint: median survival time, dose: 200.0 mg/kg/injection, schedule: Q01DX005 (ip), vehicle: saline with Tween-80 101 % of control

CC(=O)OCC(C)CCC(C)C(C)C1C(C)CC2C3CC=C4CC(OC(C)=O)CCC4(C)C3CCC21C (centres undefined)
inactive: endpoint: mean survival time, dose: 12.5 mg/kg/injection, schedule: Q01DX009 (ip), vehicle: Klucel (hydroxypropylcellulose) (HPC) 104 % of control | endpoint: mean survival time, dose: 25.0 mg/kg/injection, schedule: Q01DX009 (ip), vehicle: Klucel (hydroxypropylcellulose) (HPC) 101 % of control | [7] 101 % of control

CCCCCOC(=N)CC(=O)C(C)(C)C
inactive: endpoint: mean survival time, dose: 100.0 mg/kg/injection, schedule: Q01DX001 (ip), vehicle: saline 94 % of control | endpoint: mean survival time, dose: 200.0 mg/kg/injection, schedule: Q01DX001 (ip), vehicle: saline 94 % of control | endpoint: mean survival time, dose: 400.0 mg/kg/injection, schedule: Q01DX001 (ip), vehicle: saline 97 % of control
